Measurements from patent US8835134B2, “Cycloastragenol monoglucoside, preparation, pharmaceutical composition and application thereof” (Tianjin Institute of Pharmaceutical Research, priority 2007, dated 2014).

System: isolated rat heart
Assay: Cardiotonic effects on isolated heart (Langendorff perfusion)
Set-up: species or system Wistar rats
Description: Wistar rats (250-280 g) were anesthetized with chloral hydrate (360 mg/kg intraperitoneally) and heparinized with sodium heparin (1 mg) via sublingual vein. After opening the chest cavity, the hearts were quickly excised and immersed in cold Krebs-Henseleit (K-H) solution. Hearts were retrogradely perfused with 74 centimeters of water pressure via the aorta in a Langendorff apparatus with K-H solution, which was bubbled with a mixture of 95% O2 and 5% CO2. The suture fixed on cardiac apex was connected to a tension transducer which was connected to a polygraph (RM6300, Nihon Kohden, Japan) and a data acquisition workstation (MP150, BIOPAC Systems, USA) to a computer running Acknowledge (version 3.7.1).

What does the source list for `CC(C)(O)[C@@H]1CC[C@](C)([C@H]2[C@@H](O)C[C@@]3(C)[C@@H]4C[C@H](O[C@@H]5O[C@H](CO)[C@@H](O)[C@H](O)[C@H]5O)[C@H]5C(C)(C)[C@@H](O[C@@H]6OC[C@@H](O)[C@H](O)[C@H]6O)CC[C@@]56C[C@@]46CC[C@]23C)O1` [astragaloside IV, reference compound]?
Contractility Variation (%) (1 × 10^−7 mol/L): 24.56 ± 12.44^++ %; Contractility after administration (1 × 10^−7 mol/L): 1.73 ± 0.42 g; Contractility before administration (1 × 10^−7 mol/L): 1.42 ± 0.41 g; HR Variation (%) (1 × 10^−7 mol/L): −24 ± 17^+ %; HR after administration (1 × 10^−7 mol/L): 117 ± 52 bpm; HR before administration (1 × 10^−7 mol/L): 151 ± 60 bpm; peak derivatives of contractility Variation (%) (1 × 10^−7 mol/L): 21 ± 19^+ %; peak derivatives of contractility Δ T/S after administration (1 × 10^−7 mol/L): 78 ± 14 g/s; peak derivatives of contractility Δ T/S before administration (1 × 10^−7 mol/L): 66 ± 13 g/s; peak derivatives of diastolic force Variation (%) (1 × 10^−7 mol/L): 15 ± 9^+ %; peak derivatives of diastolic force Δ T/S after administration (1 × 10^−7 mol/L): -50 ± 11 g/s; peak derivatives of diastolic force Δ T/S before administration (1 × 10^−7 mol/L): -44 ± 11 g/s; Contractility Variation (%) (1 × 10^−8 mol/L): 6.00 ± 9.25%; Contractility after administration (1 × 10^−8 mol/L): 1.94 ± 0.43 g; Contractility before administration (1 × 10^−8 mol/L): 1.83 ± 0.38 g; HR Variation (%) (1 × 10^−8 mol/L): −6 ± 5%; HR after administration (1 × 10^−8 mol/L): 144 ± 34 bpm; HR before administration (1 × 10^−8 mol/L): 152 ± 30 bpm; peak derivatives of contractility Variation (%) (1 × 10^−8 mol/L): 6 ± 15%; peak derivatives of contractility Δ T/S after administration (1 × 10^−8 mol/L): 81 ± 19 g/s; peak derivatives of contractility Δ T/S before administration (1 × 10^−8 mol/L): 76 ± 18 g/s; peak derivatives of diastolic force Variation (%) (1 × 10^−8 mol/L): 8 ± 8%; peak derivatives of diastolic force Δ T/S after administration (1 × 10^−8 mol/L): -46 ± 9 g/s; peak derivatives of diastolic force Δ T/S before administration (1 × 10^−8 mol/L): -43 ± 10 g/s; Contractility Variation (%) (3 × 10^−8 mol/L): 6.98 ± 8.82%; Contractility after administration (3 × 10^−8 mol/L): 1.88 ± 0.40 g; Contractility before administration (3 × 10^−8 mol/L): 1.78 ± 0.46 g; HR Variation (%) (3 × 10^−8 mol/L): −14 ± 13%; HR after administration (3 × 10^−8 mol/L): 145 ± 65 bpm; HR before administration (3 × 10^−8 mol/L): 167 ± 64 bpm; peak derivatives of contractility Variation (%) (3 × 10^−8 mol/L): 12 ± 7^+ %; peak derivatives of contractility Δ T/S after administration (3 × 10^−8 mol/L): 76 ± 18 g/s; peak derivatives of contractility Δ T/S before administration (3 × 10^−8 mol/L): 69 ± 19 g/s; peak derivatives of diastolic force Variation (%) (3 × 10^−8 mol/L): 10 ± 11%; peak derivatives of diastolic force Δ T/S after administration (3 × 10^−8 mol/L): -45 ± 12 g/s; peak derivatives of diastolic force Δ T/S before administration (3 × 10^−8 mol/L): -41 ± 12 g/s; Contractility (isolated rat heart): increased; Heart rate (isolated rat heart): decreased; Peak derivatives of contractility (isolated rat heart): increased; Peak derivatives of diastolic force (isolated rat heart): increased

Which “Contractility Variation (%)” value (1 × 10^−7 mol/L) does the source give for `CC(C)(O)[C@@H]1CC[C@](C)([C@H]2[C@@H](O)C[C@@]3(C)C4C[C@H](OC5OC(CO)C(O)C(O)C5O)C5C(C)(C)[C@@H](O)CC[C@@]56C[C@@]46CC[C@]23C)O1` (stereo partly drawn) [CMG, Cycloastragenol-6-O-β-D-glucoside] here?
The value was 17.08 ± 7.19^++ %.

What about the Contractility after administration (1 × 10^−7 mol/L) of the same molecule?
Its Contractility after administration is 2.06 ± 0.59 g.

What about the Contractility before administration (1 × 10^−7 mol/L) of the same molecule?
Its Contractility before administration is 1.77 ± 0.52 g.

What about the “HR Variation (%)” value (1 × 10^−7 mol/L) of the same molecule?
Its value is −38 ± 22^++ %.

What about the HR after administration (1 × 10^−7 mol/L) of the same molecule?
Its HR after administration is 92 ± 35 bpm.

What about the HR before administration (1 × 10^−7 mol/L) of the same molecule?
Its HR before administration is 145 ± 16 bpm.

And the “peak derivatives of contractility Variation (%)” value (1 × 10^−7 mol/L)?
The value was 18 ± 6^++ %.

And the “peak derivatives of contractility Δ T/S after administration” value (1 × 10^−7 mol/L)?
Its value is 86 ± 13 g/s.

What about the “peak derivatives of contractility Δ T/S before administration” value (1 × 10^−7 mol/L) of the same molecule?
Its value is 73 ± 11 g/s.

What about the “peak derivatives of diastolic force Variation (%)” value (1 × 10^−7 mol/L) of the same molecule?
The value was 14 ± 8^+ %.

And the “peak derivatives of diastolic force Δ T/S after administration” value (1 × 10^−7 mol/L)?
The value was -51 ± 14 g/s.

And the “peak derivatives of diastolic force Δ T/S before administration” value (1 × 10^−7 mol/L)?
The value was -45 ± 14 g/s.

And the “Contractility Variation (%)” value (1 × 10^−8 mol/L)?
Its value is 7.72 ± 8.03%.

And the Contractility after administration (1 × 10^−8 mol/L)?
Its Contractility after administration is 1.97 ± 0.61 g.

What about the Contractility before administration (1 × 10^−8 mol/L) of the same molecule?
Its Contractility before administration is 1.81 ± 0.49 g.

What about the “HR Variation (%)” value (1 × 10^−8 mol/L) of the same molecule?
Its value is −17 ± 18%.

What about the HR after administration (1 × 10^−8 mol/L) of the same molecule?
Its HR after administration is 124 ± 25 bpm.

And the HR before administration (1 × 10^−8 mol/L)?
The HR before administration was 156 ± 51 bpm.

What about the “peak derivatives of contractility Variation (%)” value (1 × 10^−8 mol/L) of the same molecule?
The value was 6 ± 8%.

What about the “peak derivatives of contractility Δ T/S after administration” value (1 × 10^−8 mol/L) of the same molecule?
The value was 76 ± 19 g/s.

And the “peak derivatives of contractility Δ T/S before administration” value (1 × 10^−8 mol/L)?
Its value is 71 ± 15 g/s.

And the “peak derivatives of diastolic force Variation (%)” value (1 × 10^−8 mol/L)?
Its value is 7 ± 9%.

What about the “peak derivatives of diastolic force Δ T/S after administration” value (1 × 10^−8 mol/L) of the same molecule?
The value was -47 ± 16 g/s.

And the “peak derivatives of diastolic force Δ T/S before administration” value (1 × 10^−8 mol/L)?
The value was -44 ± 15 g/s.

And the “Contractility Variation (%)” value (3 × 10^−8 mol/L)?
The value was 5.84 ± 2.92%.

And the Contractility after administration (3 × 10^−8 mol/L)?
Its Contractility after administration is 1.92 ± 0.72 g.

What about the Contractility before administration (3 × 10^−8 mol/L) of the same molecule?
The Contractility before administration was 1.83 ± 0.72 g.

What about the “HR Variation (%)” value (3 × 10^−8 mol/L) of the same molecule?
Its value is −13 ± 12%.

What about the HR after administration (3 × 10^−8 mol/L) of the same molecule?
Its HR after administration is 128 ± 23 bpm.

What about the HR before administration (3 × 10^−8 mol/L) of the same molecule?
Its HR before administration is 150 ± 41 bpm.

What about the “peak derivatives of contractility Variation (%)” value (3 × 10^−8 mol/L) of the same molecule?
The value was 11 ± 9^+ %.

What about the “peak derivatives of contractility Δ T/S after administration” value (3 × 10^−8 mol/L) of the same molecule?
The value was 77 ± 16 g/s.

What about the “peak derivatives of contractility Δ T/S before administration” value (3 × 10^−8 mol/L) of the same molecule?
Its value is 70 ± 16 g/s.

What about the “peak derivatives of diastolic force Variation (%)” value (3 × 10^−8 mol/L) of the same molecule?
Its value is 10 ± 8%.

And the “peak derivatives of diastolic force Δ T/S after administration” value (3 × 10^−8 mol/L)?
Its value is -51 ± 18 g/s.

And the “peak derivatives of diastolic force Δ T/S before administration” value (3 × 10^−8 mol/L)?
The value was -46 ± 15 g/s.

What about the “Contractility” value (isolated rat heart) of the same molecule?
Its value is “increased”.

What about the “Heart rate” value (isolated rat heart) of the same molecule?
The value was “decreased”.

What about the “Peak derivatives of contractility” value (isolated rat heart) of the same molecule?
The value was “increased”.

What about the “Peak derivatives of diastolic force” value (isolated rat heart) of the same molecule?
The value was “increased”.

What about the “cardiotonic effect (conclusion)” value (isolated rat heart) of the same molecule?
The value was “exhibited cardiotonic effects”.
